The source of these data is patent US12497365B2, “4-pyridinyl formamide compound or derivative thereof, preparation method therefor, herbicidal composition and use thereof” (Qingdao Kingagroot Chemical Compound Co., Ltd., priority 2019, dated 2025).

Structures are written as SMILES.

Holding throughout (experiment): Weeding effect in post-emergence stage
What all share (format): in vivo
What all share (details): active ingredient 2000 g/ha, 3 weeks after application, fresh weight control rate

The subject of one assay is Chenopodium album. Put shortly: (§1)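 Greenhouse post-emergence test: 2-3 leaf plants sprayed at 125-2000 g/ha, then fresh weight control rate scored at 3 weeks.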
In the next assay the test system is Descurainia sophia. The method, boiled down:
as §1

The next assay concerns Abutilon theophrasti. Put shortly: as §1
For assay [1], the system named is Amaranthus retroflexus L. Put shortly: as §1

Turning to `Cn1nnnc1NC(=O)c1ccnc(-c2cccnc2Cl)c1Cl` [Compound 1-130], the “Weeding effect, activity level (growth control rate), Chenopodium album” value (shortened to “Weeding effect … Chenopodium album”) with Chenopodium album is listed as 5 (Level 5: growth control rate is above 85%). Besides, the “Weeding effect, activity level (growth control rate), Descurainia sophia” value (from here on “Weeding effect … Descurainia sophia”) in the assay with Descurainia sophia is reported as 5 (Level 5: growth control rate is above 85%). The “Weeding effect, activity level (growth control rate), Abutilon theophrasti” value (from here on “Weeding effect … Abutilon theophrasti”) with Abutilon theophrasti was 5 (Level 5: growth control rate is above 85%). Further, the “Weeding effect, activity level (growth control rate), Amaranthus retroflexus L.” value (“Weeding effect … Amaranthus retroflexus L.” below) in assay [1] is recorded as 5 (Level 5: growth control rate is above 85%).

Consider `Cn1nnnc1NC(=O)c1ccnc(-c2ccc(Br)nc2)c1Cl` [Compound 1-131], for which the “Weeding effect … Chenopodium album” value in the assay on Chenopodium album was 5 (Level 5: growth control rate is above 85%). The “Weeding effect … Descurainia sophia” value in the assay on Descurainia sophia was 5 (Level 5: growth control rate is above 85%). For the same molecule, the “Weeding effect … Abutilon theophrasti” value in the assay with Abutilon theophrasti is 5 (Level 5: growth control rate is above 85%). Besides, the “Weeding effect … Amaranthus retroflexus L.” value in assay [1] was 5 (Level 5: growth control rate is above 85%).

On to `Cn1nnnc1NC(=O)c1ccnc(-c2ccc(F)nc2)c1Cl` [Compound 1-132], for which the “Weeding effect … Chenopodium album” value in the assay on Chenopodium album is given as 5 (Level 5: growth control rate is above 85%). Also, the “Weeding effect … Descurainia sophia” value with Descurainia sophia is 5 (Level 5: growth control rate is above 85%). Further, the “Weeding effect … Abutilon theophrasti” value in the assay with Abutilon theophrasti is reported as 5 (Level 5: growth control rate is above 85%). In addition, the “Weeding effect … Amaranthus retroflexus L.” value in assay [1] is 5 (Level 5: growth control rate is above 85%).

As to `Cn1nnnc1NC(=O)c1ccnc(-c2cncc(C#N)c2)c1Cl` [Compound 1-133], in the assay with Chenopodium album, the “Weeding effect … Chenopodium album” value is listed as 5 (Level 5: growth control rate is above 85%). Besides, the “Weeding effect … Descurainia sophia” value in the assay on Descurainia sophia is given as 5 (Level 5: growth control rate is above 85%). For the same molecule, the “Weeding effect … Abutilon theophrasti” value with Abutilon theophrasti is listed as 5 (Level 5: growth control rate is above 85%). For the same molecule, the “Weeding effect … Amaranthus retroflexus L.” value in assay [1] is listed as 5 (Level 5: growth control rate is above 85%).

As for `Cn1nnnc1NC(=O)c1ccnc(-c2ccc(C#N)nc2)c1Cl` [Compound 1-134], the “Weeding effect … Chenopodium album” value with Chenopodium album is reported as 5 (Level 5: growth control rate is above 85%). Further, the “Weeding effect … Descurainia sophia” value in the assay on Descurainia sophia is given as 5 (Level 5: growth control rate is above 85%). In the assay on Abutilon theophrasti, the “Weeding effect … Abutilon theophrasti” value is given as 5 (Level 5: growth control rate is above 85%). Further, in assay [1], the “Weeding effect … Amaranthus retroflexus L.” value is recorded as 5 (Level 5: growth control rate is above 85%).

On to `Cn1nnnc1NC(=O)c1ccnc(-c2ccc(F)nc2F)c1Cl` [Compound 1-135], for which, in the assay on Chenopodium album, the “Weeding effect … Chenopodium album” value is recorded as 5 (Level 5: growth control rate is above 85%). Also, the “Weeding effect … Descurainia sophia” value in the assay with Descurainia sophia is on record as 5 (Level 5: growth control rate is above 85%). Besides, the “Weeding effect … Abutilon theophrasti” value in the assay on Abutilon theophrasti was 5 (Level 5: growth control rate is above 85%). Further, in assay [1], the “Weeding effect … Amaranthus retroflexus L.” value was 5 (Level 5: growth control rate is above 85%).

`Cc1cc(F)ncc1-c1nccc(C(=O)Nc2nnnn2C)c1Cl` [Compound 1-136]: the “Weeding effect … Chenopodium album” value in the assay on Chenopodium album is on record as 5 (Level 5: growth control rate is above 85%). Also, the “Weeding effect … Descurainia sophia” value with Descurainia sophia is reported as 5 (Level 5: growth control rate is above 85%). For the same molecule, the “Weeding effect … Abutilon theophrasti” value in the assay on Abutilon theophrasti is given as 5 (Level 5: growth control rate is above 85%). In assay [1], the “Weeding effect … Amaranthus retroflexus L.” value is recorded as 5 (Level 5: growth control rate is above 85%).

As to `Cc1nc(F)ccc1-c1nccc(C(=O)Nc2nnnn2C)c1Cl` [Compound 1-137], the “Weeding effect … Chenopodium album” value in the assay with Chenopodium album is reported as 5 (Level 5: growth control rate is above 85%). The “Weeding effect … Descurainia sophia” value in the assay with Descurainia sophia is reported as 5 (Level 5: growth control rate is above 85%). The “Weeding effect … Abutilon theophrasti” value in the assay with Abutilon theophrasti is reported as 5 (Level 5: growth control rate is above 85%). Besides, the “Weeding effect … Amaranthus retroflexus L.” value in assay [1] was 5 (Level 5: growth control rate is above 85%).

For the molecule `Cc1cc(Cl)ncc1-c1nccc(C(=O)Nc2nnnn2C)c1Cl` [Compound 1-138], in the assay with Chenopodium album, the “Weeding effect … Chenopodium album” value was 5 (Level 5: growth control rate is above 85%). Besides, the “Weeding effect … Descurainia sophia” value in the assay on Descurainia sophia is recorded as 5 (Level 5: growth control rate is above 85%). Besides, the “Weeding effect … Abutilon theophrasti” value with Abutilon theophrasti was 5 (Level 5: growth control rate is above 85%). Also, the “Weeding effect … Amaranthus retroflexus L.” value in assay [1] is listed as 5 (Level 5: growth control rate is above 85%).

Take `Cn1nnnc1NC(=O)c1ccnc(-c2ccc(Cl)nc2Cl)c1Cl` [Compound 1-139]: in the assay with Chenopodium album, the “Weeding effect … Chenopodium album” value is reported as 5 (Level 5: growth control rate is above 85%). The “Weeding effect … Descurainia sophia” value in the assay on Descurainia sophia was 5 (Level 5: growth control rate is above 85%). Moreover, the “Weeding effect … Abutilon theophrasti” value in the assay with Abutilon theophrasti is listed as 5 (Level 5: growth control rate is above 85%). The “Weeding effect … Amaranthus retroflexus L.” value in assay [1] was 5 (Level 5: growth control rate is above 85%).

`Cn1nnnc1NC(=O)c1ccnc(-c2ccc(Br)nc2F)c1Cl` [Compound 1-140]: the “Weeding effect … Chenopodium album” value with Chenopodium album is on record as 5 (Level 5: growth control rate is above 85%). Further, the “Weeding effect … Descurainia sophia” value in the assay on Descurainia sophia is 5 (Level 5: growth control rate is above 85%). For the same molecule, the “Weeding effect … Abutilon theophrasti” value in the assay on Abutilon theophrasti is given as 5 (Level 5: growth control rate is above 85%). Besides, in assay [1], the “Weeding effect … Amaranthus retroflexus L.” value is 5 (Level 5: growth control rate is above 85%).

`Cn1nnnc1NC(=O)c1ccnc(-c2cccnc2C(F)(F)F)c1Cl` [Compound 1-141]: the “Weeding effect … Chenopodium album” value in the assay on Chenopodium album was 5 (Level 5: growth control rate is above 85%). Besides, the “Weeding effect … Descurainia sophia” value in the assay on Descurainia sophia was 5 (Level 5: growth control rate is above 85%). Further, the “Weeding effect … Abutilon theophrasti” value in the assay on Abutilon theophrasti is listed as 5 (Level 5: growth control rate is above 85%). Further, the “Weeding effect … Amaranthus retroflexus L.” value in assay [1] is reported as 5 (Level 5: growth control rate is above 85%).

Consider `Cn1nnnc1NC(=O)c1ccnc(-c2ccc(C(F)(F)F)nc2)c1Cl` [Compound 1-142], for which the “Weeding effect … Chenopodium album” value in the assay on Chenopodium album was 5 (Level 5: growth control rate is above 85%). Besides, in the assay with Descurainia sophia, the “Weeding effect … Descurainia sophia” value is on record as 5 (Level 5: growth control rate is above 85%). Also, the “Weeding effect … Abutilon theophrasti” value in the assay on Abutilon theophrasti is 5 (Level 5: growth control rate is above 85%). Moreover, the “Weeding effect … Amaranthus retroflexus L.” value in assay [1] is 5 (Level 5: growth control rate is above 85%).

Take `COc1ccc(-c2nccc(C(=O)Nc3nnnn3C)c2Cl)cn1` [Compound 1-143]: in the assay with Chenopodium album, the “Weeding effect … Chenopodium album” value was 5 (Level 5: growth control rate is above 85%). The “Weeding effect … Descurainia sophia” value with Descurainia sophia was 5 (Level 5: growth control rate is above 85%). In addition, the “Weeding effect … Abutilon theophrasti” value in the assay on Abutilon theophrasti was 5 (Level 5: growth control rate is above 85%). Also, the “Weeding effect … Amaranthus retroflexus L.” value in assay [1] is recorded as 5 (Level 5: growth control rate is above 85%).

As to `CCOc1ccc(-c2nccc(C(=O)Nc3nnnn3C)c2Cl)cn1` [Compound 1-144], the “Weeding effect … Chenopodium album” value with Chenopodium album is listed as 5 (Level 5: growth control rate is above 85%). For the same molecule, in the assay with Descurainia sophia, the “Weeding effect … Descurainia sophia” value was 5 (Level 5: growth control rate is above 85%). Further, the “Weeding effect … Abutilon theophrasti” value with Abutilon theophrasti is recorded as 5 (Level 5: growth control rate is above 85%). For the same molecule, the “Weeding effect … Amaranthus retroflexus L.” value in assay [1] is 5 (Level 5: growth control rate is above 85%).

Turning to `Cn1nnnc1NC(=O)c1ccnc(-c2cncc(N)c2)c1Cl` [Compound 1-145], the “Weeding effect … Chenopodium album” value with Chenopodium album is recorded as 5 (Level 5: growth control rate is above 85%). Further, the “Weeding effect … Descurainia sophia” value with Descurainia sophia is 5 (Level 5: growth control rate is above 85%). Further, in the assay with Abutilon theophrasti, the “Weeding effect … Abutilon theophrasti” value is on record as 5 (Level 5: growth control rate is above 85%). For the same molecule, the “Weeding effect … Amaranthus retroflexus L.” value in assay [1] is on record as 5 (Level 5: growth control rate is above 85%).

Regarding `Cn1nnnc1NC(=O)c1ccnc(-c2ccc(N3CCOCC3)nc2)c1Cl` [Compound 1-146], in the assay on Chenopodium album, the “Weeding effect … Chenopodium album” value is 5 (Level 5: growth control rate is above 85%). In the assay with Descurainia sophia, the “Weeding effect … Descurainia sophia” value is 5 (Level 5: growth control rate is above 85%). In the assay with Abutilon theophrasti, the “Weeding effect … Abutilon theophrasti” value is given as 5 (Level 5: growth control rate is above 85%). Also, the “Weeding effect … Amaranthus retroflexus L.” value in assay [1] is recorded as 5 (Level 5: growth control rate is above 85%).

For `Cn1nnnc1NC(=O)c1ccnc(-c2ccncc2)c1Cl` [Compound 1-147], the “Weeding effect … Chenopodium album” value with Chenopodium album is given as 5 (Level 5: growth control rate is above 85%). Also, in the assay on Descurainia sophia, the “Weeding effect … Descurainia sophia” value was 5 (Level 5: growth control rate is above 85%). The “Weeding effect … Abutilon theophrasti” value in the assay on Abutilon theophrasti is reported as 5 (Level 5: growth control rate is above 85%). For the same molecule, the “Weeding effect … Amaranthus retroflexus L.” value in assay [1] is given as 5 (Level 5: growth control rate is above 85%).

Regarding `Cn1nnnc1NC(=O)c1ccnc(-c2ccnc(C#N)c2)c1Cl` [Compound 1-148], the “Weeding effect … Chenopodium album” value in the assay on Chenopodium album is 5 (Level 5: growth control rate is above 85%). In addition, the “Weeding effect … Descurainia sophia” value in the assay on Descurainia sophia is 5 (Level 5: growth control rate is above 85%). For the same molecule, in the assay with Abutilon theophrasti, the “Weeding effect … Abutilon theophrasti” value was 5 (Level 5: growth control rate is above 85%). In assay [1], the “Weeding effect … Amaranthus retroflexus L.” value is 5 (Level 5: growth control rate is above 85%).
